Experimental data reported in PMC10349806 (Nature Communications, 2023).
Changes are numbered by the printed parent chain. “And” between values parts separate entries of the source, which are not always exact repeats. Identical values can stand only once.

What was measured:
PfCRT variant E207G = test: CQ uptake assay, oocytes expressing E207G; assay type: cell-based, Plasmodium falciparum
Method: (§1) Site-directed mutagenesis of PfCRT^Dd2 was performed as described using the megaprimer method with overlap extension[21],[54]. The primer pairs used are listed in Supplementary Table 6. Please note that a codon-optimized and oocyte-adapted version of PfCRT^Dd2 was used[22] (Supplementary Fig. 16). The resulting DNA fragment was cloned into the SP64T expression vector and verified by sequencing.
(§2) Oocytes were obtained as described previously. Briefly, adult (>2 years old) female X. laevis frogs (NASCO) were anesthetized in a cooled solution of ethyl 3-amino benzoate methanesulfonate (0.1%, w/v), followed by a surgical removal of parts of the ovary. The ovary lobes were carefully dissected and small pieces of oocytes were incubated in Ca^2+-free ND96 buffer (96 mM NaCl, 2 mM KCl, 1 mM MgCl2 buffered with 5 mM HEPES/NaOH, pH 7.5) supplemented with collagenase D (0.1%, w/v; Roche), BSA (0.5%, w/v), and 9 mm Na2HPO4 at 18 °C for 14-16 h while gentle shaking. After incubation, the oocytes were carefully washed several times with ND96 buffer (96 mM NaCl, 2 mM KCl, 1.8 mM CaCl2, 1 mM MgCl2 buffered with 5 mM HEPES/NaOH, pH 7.5) supplemented with 100 mg l^−1 gentamycin). Defolliculated and healthy-looking stage V-VI oocytes were manually selected for RNA microinjection. The RNA was generated as following: The codon-optimized sequences of PfCRT variants were cloned into the pSP64T expression vector. After vector linearization using the restriction endonucleases BamHI or SalI (New England Biolabs), transcription was performed using the in vitro SP6 mMessage mMachine Kit (Ambion)[34]. The obtained RNA was kept at −80 °C and diluted with nuclease-free water to a concentration of 0.6 μg μl^−1. Precision-bore glass capillary tubes (3.5-inch glass capillaries; Drummond Scientific Co.) were pulled on a vertical puller (P-87 Flaming/Brown micropipette puller, Sutter Instrument Co.), graduated, and placed on a microinjector (Nanoject II Auto-Nanoliter Injector, Drummond Scientific Co.). 50 nl of nuclease-free water alone (control oocytes) or 50 nl of 0.6 μg μl^−1 RNA were injected under stereomicroscopic control. Injected oocytes were incubated for 46–72 h at 18 °C with twice-daily buffer changes before usage in experiments.
(§3) Drug uptake assays were performed as described previously[21],[22],[24],[34]. […] The direction of radio-labeled drug transport is here from the mostly acidic extracellular solution (pH 4.5 or 6.0, as indicated) into the oocyte cytosol (pH ∼ 7.2), which corresponds to the efflux of drug from the acidic digestive vacuole (pH 5.2) into the parasite cytoplasm (pH 7.2). The topology of PfCRT in the oolemma is such that both the N- and C-terminus face the extracellular milieu[3],[22]. In the parasite, the N- and C-terminus face the lumen of the digestive vacuole. CQ uptake kinetics were performed by incubating oocytes in ND96 buffer adjusted to a pH of 4.5, 5.0, 5.5, or 6.0 and supplemented with 50 nM [^3H]CQ and one of 7 different CQ concentrations (10 µM, 50 µM, 100 µM, 200 µM, 300 µM, 400 µM, 500 µM CQ). The reaction was stopped at the 60 min time point, which is in the linear uptake range[22],[34] (Supplementary Fig. 17). For determination of the amount of drug uptake for each oocyte, the reaction medium was removed and the oocytes were washed three times with 2 ml of ice-cold ND96 buffer. Each oocyte was individually transferred to a scintillation vial containing 5% sodium dodecyl sulfate (200 μl) for lysis. The radioactivity of each sample was measured using a liquid scintillation analyzer Tri-Carb 4910 TR (PerkinElmer). Oocytes that were injected with water instead of RNA were analyzed in parallel, representing the uptake of a drug by diffusion and/or endogenous permeation pathways. The resulting value represents the “background“ level of drug accumulation in oocytes (in-depth discussion in[22]). […]

PfCRT variant D410A = molecular target: T1, PfCRT variant D410A (Plasmodium falciparum, UniProt Q9N623, A220S/D410A/I356T/K76T/M74I/N326S/N75E/Q271E/R371I); test: CQ uptake assay, oocytes expressing D410A; assay type: cell-based
T1 sequence (Q9N623 1-424 M74I/N75E/K76T/A220S/Q271E/N326S/I356T/R371I/D410A): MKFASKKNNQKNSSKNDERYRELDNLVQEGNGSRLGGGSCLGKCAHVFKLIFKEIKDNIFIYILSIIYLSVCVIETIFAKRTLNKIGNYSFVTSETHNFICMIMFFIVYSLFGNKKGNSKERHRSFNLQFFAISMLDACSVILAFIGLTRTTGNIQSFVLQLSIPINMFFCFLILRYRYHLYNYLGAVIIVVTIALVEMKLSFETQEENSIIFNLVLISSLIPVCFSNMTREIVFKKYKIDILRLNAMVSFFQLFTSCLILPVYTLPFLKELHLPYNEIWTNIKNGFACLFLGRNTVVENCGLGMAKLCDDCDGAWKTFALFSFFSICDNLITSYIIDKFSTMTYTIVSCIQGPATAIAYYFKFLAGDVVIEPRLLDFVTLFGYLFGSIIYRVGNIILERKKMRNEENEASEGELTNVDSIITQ
Method: as §1, §2, §3

PfCRT variant D368A = molecular target: T2, PfCRT variant D368A (Plasmodium falciparum, UniProt Q9N623, A220S/D368A/I356T/K76T/M74I/N326S/N75E/Q271E/R371I); test: CQ uptake assay, oocytes expressing D368A; assay type: cell-based
T2 sequence (Q9N623 1-424 M74I/N75E/K76T/A220S/Q271E/N326S/I356T/D368A/R371I): T1 sequence (Q9N623 1-424 M74I/N75E/K76T/A220S/Q271E/N326S/I356T/R371I/D410A) with D368A, A410D
Method: as §1, §2
Drug uptake assays were performed as described previously[21],[22],[24],[34]. […] The direction of radio-labeled drug transport is here from the mostly acidic extracellular solution (pH 4.5 or 6.0, as indicated) into the oocyte cytosol (pH ∼ 7.2), which corresponds to the efflux of drug from the acidic digestive vacuole (pH 5.2) into the parasite cytoplasm (pH 7.2). The topology of PfCRT in the oolemma is such that both the N- and C-terminus face the extracellular milieu[3],[22]. In the parasite, the N- and C-terminus face the lumen of the digestive vacuole. CQ uptake kinetics were performed by incubating oocytes in ND96 buffer adjusted to a pH of 4.5, 5.0, 5.5, or 6.0 and supplemented with 50 nM [^3H]CQ and one of 7 different CQ concentrations (10 µM, 50 µM, 100 µM, 200 µM, 300 µM, 400 µM, 500 µM CQ). The reaction was stopped at the 60 min time point, which is in the linear uptake range[22],[34] (Supplementary Fig. 17). […] The radioactivity of each sample was measured using a liquid scintillation analyzer Tri-Carb 4910 TR (PerkinElmer). Oocytes that were injected with water instead of RNA were analyzed in parallel, representing the uptake of a drug by diffusion and/or endogenous permeation pathways. […]

[1] = E207G, 50 µM CQ, 1 h, mean ± SEM
[2] = D410A, 50 µM CQ, 1 h, mean ± SEM
[3] = pH 4.5, single replicates, Fig 1d left
[4] = pH 6.0, single replicates, Fig 1d left
[5] = D368A, 50 µM CQ, 1 h, mean ± SEM

SMILES: CCN(CC)CCCC(C)Nc1ccnc2cc(Cl)ccc12 (centres unmarked) [CQ, chloroquine]
- Activity at pH 4.5 (PfCRT variant E207G; [1]): 2.26 ± 0.46 pmol h-1 oocyte-1
- Activity at pH 6.0 (PfCRT variant E207G; [1]): 2.55 ± 0.15 pmol h-1 oocyte-1
- R-value (PfCRT variant E207G; E207G, CQ transport at pH 4.5 / pH 6.0): 0.88 ± 0.06
- E207G transport activity pH 4.5 (PfCRT variant E207G; pH 4.5, individual replicates, Fig 6b): 2.31 pmol oocyte-1 h-1 and 2.79 pmol oocyte-1 h-1 and 1.67 pmol oocyte-1 h-1
- E207G transport activity pH 6.0 (PfCRT variant E207G; pH 6.0, individual replicates, Fig 6b): 2.70 pmol oocyte-1 h-1 and 2.76 pmol oocyte-1 h-1 and 2.19 pmol oocyte-1 h-1
- E207G R-value (PfCRT variant E207G; ratio of activity pH 4.5 / pH 6.0): 0.86 and 1.01 and 0.76
- Activity at pH 4.5 (PfCRT variant D410A; [2]): 2.38 ± 0.18 pmol h-1 oocyte-1
- Activity at pH 6.0 (PfCRT variant D410A; [2]): 5.09 ± 0.24 pmol h-1 oocyte-1
- R-value (PfCRT variant D410A; D410A, CQ transport at pH 4.5 / pH 6.0): 0.47 ± 0.06
- D410A transport activity pH 4.5 (PfCRT variant D410A; [3]): 2.74 pmol oocyte-1 h-1 and 1.99 pmol oocyte-1 h-1 and 2.40 pmol oocyte-1 h-1
- D410A R-value (PfCRT variant D410A; pH 4.5 vs pH 6.0, Fig 1d left): 0.60 and 0.35 and 0.47
- D410A transport activity pH 6.0 (PfCRT variant D410A; [4]): 4.58 pmol oocyte-1 h-1 and 5.61 pmol oocyte-1 h-1 and 5.09 pmol oocyte-1 h-1
- Activity at pH 4.5 (PfCRT variant D368A; [5]): 1.36 ± 0.32 pmol h-1 oocyte-1
- Activity at pH 6.0 (PfCRT variant D368A; [5]): 3.05 ± 0.29 pmol h-1 oocyte-1
- R-value (PfCRT variant D368A; D368A, CQ transport at pH 4.5 / pH 6.0): 0.44 ± 0.08
- D368A transport activity pH 4.5 (PfCRT variant D368A; [3]): 2.14 pmol oocyte-1 h-1 and 0.90 pmol oocyte-1 h-1 and 1.05 pmol oocyte-1 h-1
- D368A transport activity pH 6.0 (PfCRT variant D368A; [4]): 3.49 pmol oocyte-1 h-1 and 3.31 pmol oocyte-1 h-1 and 2.36 pmol oocyte-1 h-1
